According to patent US10301295B2, “Herbicidal compounds” (Syngenta Participations AG, priority 2014, dated 2019):
Like-named read-outs stand apart in the source and are kept apart here.

How the values were obtained:
Format in all cases: in vivo
wheat = assay: Post-emergence herbicidal activity against cereal crops (wheat) +/- safener, crop selectivity; settings: 100%=total damage to plant, 0%=no damage; for Post-emergence herbicidal activity against wheat (percentage phytotoxicity), +CQC: 250 g/ha, plus safener cloquintocet-mexyl (CQC) applied at 50 g/ha; for percent phytotoxicity (crop damage) to wheat at 250 g/ha: Triticum aestivum, 360 h, without safener, read-out: Post-emergence herbicidal activity against wheat (percentage phytotoxicity), Wheat - CQC
Procedure, shortened: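 Test plants raised in pots in a glasshouse (24/18 °C warm or 20/16 °C cool species day/night, 16 h light, 65% humidity) and treated post-emergence about 12 days after sowing. Visual percentage phytotoxicity scored 15 days after application (0% = no damage, 100% = total damage).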

[1] = system: Echinochloa crus-galli (ECHCG); assay: Glasshouse assay for herbicidal activity, pre-/post-emergence (percentage phytotoxicity); settings: Echinochloa crus-galli, Rate 250 g/ha, 100%=total damage, 0%=no damage
Procedure, shortened: (§1)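 Percentage phytotoxicity was assessed visually, 100% meaning total plant damage and 0% none, at 20 days after application for pre-emergence and 15 days for post-emergence. Plants were potted in standard soil and treated after 1 day or about 12 days of growth.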

Avena fatua (AVEFA) = assay: as above; settings: Avena fatua, Rate 250 g/ha, 100%=total damage, 0%=no damage
Procedure, shortened: as §1

Lolium perenne (LOLPE) = assay: as above; settings: Lolium perenne, Rate 250 g/ha, 100%=total damage, 0%=no damage
Procedure, shortened: as §1

[2] = system: Alopecurus myosuroides (ALOMY); assay: as above; settings: Alopecurus myosuroides, Rate 250 g/ha, 100%=total damage, 0%=no damage
Procedure, shortened: as §1

[3] = post-emergence, 360 h, post-emergence, visual assessment 15 DAA, read-out: Post-emergence herbicidal activity (percentage phytotoxicity), ECHCG POST
[4] = pre-emergence, 480 h, pre-emergence, visual assessment 20 DAA, read-out: Pre-emergence herbicidal activity (percentage phytotoxicity), ECHCG PRE
[5] = post-emergence, 360 h, post-emergence, visual assessment 15 DAA, read-out: Post-emergence herbicidal activity (percentage phytotoxicity), AVEFA POST
[6] = pre-emergence, 480 h, pre-emergence, visual assessment 20 DAA, read-out: Pre-emergence herbicidal activity (percentage phytotoxicity), AVEFA PRE
[7] = post-emergence, 360 h, post-emergence, visual assessment 15 DAA, read-out: Post-emergence herbicidal activity (percentage phytotoxicity), LOLPE POST
[8] = pre-emergence, 480 h, pre-emergence, visual assessment 20 DAA, read-out: Pre-emergence herbicidal activity (percentage phytotoxicity), LOLPE PRE
[9] = 360 h, post-emergence, visual assessment 15 DAA, read-out: Post-emergence herbicidal activity (percentage phytotoxicity), ALOMY POST
[10] = 480 h, pre-emergence, visual assessment 20 DAA, read-out: Pre-emergence herbicidal activity (percentage phytotoxicity), ALOMY PRE

SMILES	Post-emergence herbicidal activity against wheat (percentage phytotoxicity), +CQC (wheat)	percent phytotoxicity (crop damage) to wheat at 250 g/ha (wheat)	pest or weed control at 250 g/ha [1, 3]	pest or weed control at 250 g/ha [1, 4]	pest or weed control at 250 g/ha (Avena fatua (AVEFA); [5])	pest or weed control at 250 g/ha (Avena fatua (AVEFA); [6])	pest or weed control at 250 g/ha (Lolium perenne (LOLPE); [7])	pest or weed control at 250 g/ha (Lolium perenne (LOLPE); [8])	pest or weed control at 250 g/ha [2, 9]	pest or weed control at 250 g/ha [2, 10]
Cc1cc(C)c(C2C(=O)CC(CCNC(=O)C3=NOC(C)(C)C3)C2=O)c(C)c1 (centres unmarked) [Compound A40, N-[2-[2,4-dioxo-3-(2,4,6-trimethylphenyl)cyclopentyl]ethyl]-5,5-dimethyl-4H-isoxazole-3-carboxamide]	80%	90%	100%	100%	100%	100%	90%	100%	100%	90%
Cc1cc(-n2cc(Cl)cn2)cc(C)c1C1C(=O)CC(CCNC(=O)NC(C)(C)C)C1=O (centres unmarked) [Compound A21]	70%	90%	100%	100%	100%	90%	90%	80%	90%	90%
CC(=NOCc1ccccc1)C(=O)NCCC1CC(=O)C(c2c(C)cc(C)cc2C)C1=O (centres unmarked) [Compound A44]	10%	30%	70%	0%	0%	0%	0%	10%	0%	0%
Cc1cc(C)c(C2C(=O)CC(CCNC(=O)NC(=O)c3ccc(C(F)(F)F)c(F)c3)C2=O)c(C)c1 (centres unmarked) [Compound A61]	40%	70%	70%	30%	0%	30%	70%	40%	40%	20%
Cc1cc(C)c(C2C(=O)CC(CCNC(=O)NC(=O)c3ccc(F)cc3F)C2=O)c(C)c1 (centres unmarked) [Compound A53]	80%	90%	100%	100%	100%	70%	100%	90%	90%	80%
Cc1cc(-n2cc(Cl)cn2)cc(C)c1C1C(=O)CC(CCNC(=O)NOC(C)(C)C)C1=O (centres unmarked) [Compound A25]	0%	60%	90%	50%	80%	0%	20%	30%	70%	30%
Cc1cc(C)c(C2C(=O)CC(CCNS(=O)(=O)c3ccccc3Cl)C2=O)c(C)c1 (centres unmarked) [Compound A80]	0%	0%	0%	40%	0%	0%	60%	60%	10%	10%
Cc1ccc(C(=O)NC(=O)NCCC2CC(=O)C(c3c(C)cc(C)cc3C)C2=O)cc1 (centres unmarked) [Compound A55]	0%	30%	80%	80%	0%	10%	90%	70%	70%	60%
